Assay results published in ChEMBL document CHEMBL4118133, “Inhibitory effects of methyl-3,5-di-O-caffeoyl-epi-quinate on RANKL-induced osteoclast differentiation” (Bioorg Med Chem Lett, 2018).
Active and inactive are the calls of the source. No cut-off for these calls is given here.

Tests used:
[1] = system: BMDM; assay: Inhibition of M-CSF/RANKL-induced osteoclast differentiation in ICR mouse BMDM at 5 to 10 uM after 4 days by TRAP staining method; format: functional, cell-based
[2] = target: MAP kinase p38 (Mus musculus) (UniProt P47811+O08911+Q9WUI1+Q9Z1B7); assay: Inhibition of RANKL-induced p38 phosphorylation in ICR mouse BMDM at 5 uM preincubated for 1 hr followed by RANKL stimulation measured after 5 to 30 mins by Western blot method; format: cell-based
[3] = target: RAC-alpha serine/threonine-protein kinase (Mus musculus) (UniProt P31750); assay: Inhibition of RANKL-induced AKT phosphorylation in ICR mouse BMDM at 5 uM preincubated for 1 hr followed by RANKL stimulation measured after 30 mins by Western blot method; format: cell-based
Sequence of RAC-alpha serine/threonine-protein kinase (Mus musculus) (P31750 whole entry): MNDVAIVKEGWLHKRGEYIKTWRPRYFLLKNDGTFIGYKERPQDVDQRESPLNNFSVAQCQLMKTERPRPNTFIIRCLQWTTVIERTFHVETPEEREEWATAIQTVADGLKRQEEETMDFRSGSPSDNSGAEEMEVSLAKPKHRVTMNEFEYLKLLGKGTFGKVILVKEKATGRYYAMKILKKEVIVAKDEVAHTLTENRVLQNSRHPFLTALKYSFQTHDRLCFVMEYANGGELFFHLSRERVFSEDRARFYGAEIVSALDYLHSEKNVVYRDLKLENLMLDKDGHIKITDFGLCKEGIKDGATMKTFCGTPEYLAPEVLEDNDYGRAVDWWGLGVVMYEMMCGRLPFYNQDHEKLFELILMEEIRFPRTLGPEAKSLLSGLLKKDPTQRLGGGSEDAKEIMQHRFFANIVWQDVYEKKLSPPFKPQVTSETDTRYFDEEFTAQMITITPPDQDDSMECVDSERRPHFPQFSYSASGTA

[4] = system: BMDM; assay: Inhibition of RANKL-induced ERK phosphorylation in ICR mouse BMDM at 5 uM preincubated for 1 hr followed by RANKL stimulation measured after 5 to 30 mins by Western blot method; format: cell-based
[5] = system: BMDM; assay: Inhibition of M-CSF/RANKL-induced osteoclast differentiation in ICR mouse BMDM assessed as downregulation of Ctsk mRNA expression at 5 uM by qRT-PCR method; format: functional, cell-based
[6] = system: Osteoclast; assay: Effect on bone-resorbing function of osteoclast derived from M-CSF/RANKL-induced ICR mouse BMDM assessed as change in size of resorption pit area at 5 uM after 2 days by hematoxylin staining-based assay; format: functional, cell-based
[7] = system: BMDM; assay: Inhibition of RANKL-mediated decrease in Mafb mRNA expression in ICR mouse BMDM at 5 uM by qRT-PCR method; format: functional, cell-based
[8] = system: BMDM; assay: Inhibition of M-CSF/RANKL-induced osteoclast differentiation in ICR mouse BMDM assessed as downregulation of Nfatc1 expression at 5 uM after 3 days by Western blot method; format: functional, cell-based
[9] = system: BMDM; assay: Inhibition of RANKL-mediated decrease in Bcl6 mRNA expression in ICR mouse BMDM at 5 uM by qRT-PCR method; format: functional, cell-based
[10] = system: BMDM; assay: Inhibition of M-CSF/RANKL-induced osteoclast differentiation in ICR mouse BMDM at 1 uM after 4 days by TRAP staining method relative to control; format: functional; settings: 96 h
[11] = system: BMDM; assay: Inhibition of M-CSF/RANKL-induced osteoclast differentiation in ICR mouse BMDM assessed as downregulation of Nfatc1 mRNA expression at 5 uM by qRT-PCR method; format: functional, cell-based
[12] = system: BMDM; assay: Inhibition of M-CSF/RANKL-induced osteoclast differentiation in ICR mouse BMDM assessed as downregulation of Acp5 mRNA expression at 5 uM by qRT-PCR method; format: functional, cell-based
[13] = system: BMDM; assay: Inhibition of M-CSF/RANKL-induced osteoclast differentiation in ICR mouse BMDM assessed as downregulation of Dcstamp mRNA expression at 5 uM by qRT-PCR method; format: functional, cell-based
[14] = system: BMDM; assay: Growth inhibition of ICR mouse BMDM up to 10 uM after 3 days by MTT assay; format: cell-based; settings: 72 h
[15] = system: BMDM; assay: Inhibition of RANKL-mediated decrease in Irf8 mRNA expression in ICR mouse BMDM at 5 uM by qRT-PCR method; format: functional, cell-based
[16] = system: BMDM; assay: Inhibition of M-CSF/RANKL-induced osteoclast differentiation in ICR mouse BMDM assessed as decrease in number of cells with nuclear Nfatc1 at 5 uM by rhodamine-conjugated phalloidin/DAPI staining-based immunofluorescence method; format: functional, cell-based

**Q.** Which inhibition [1] does the source give for `COC(=O)[C@]1(O)C[C@@H](OC(=O)/C=C/c2ccc(O)c(O)c2)[C@H](O)[C@H](OC(=O)/C=C/c2ccc(O)c(O)c2)C1` here?
**A.** Its inhibition is “Active”.

**Q.** And the inhibition [2]?
**A.** The inhibition was “Active”.

**Q.** And the inhibition [3]?
**A.** Its inhibition is “Active”.

**Q.** What about the inhibition [4] of the same compound?
**A.** Its inhibition is “Active”.

**Q.** What about the inhibition [5] of the same compound?
**A.** The inhibition was “Active”.

**Q.** What about the Activity [6] of the same compound?
**A.** The Activity was “inactive”.

**Q.** What about the inhibition [7] of the same compound?
**A.** Its inhibition is “Active”.

**Q.** And the inhibition [8]?
**A.** The inhibition was “Active”.

**Q.** And the inhibition [9]?
**A.** The inhibition was “Active”.

**Q.** What about the inhibition at 1 µM [10] of the same compound?
**A.** Its inhibition at 1 µM is 78%.

**Q.** And the inhibition [11]?
**A.** The inhibition was “Active”.

**Q.** And the inhibition [12]?
**A.** The inhibition was “Active”.

**Q.** And the inhibition [13]?
**A.** Its inhibition is “Active”.

**Q.** What about the “growth inhibition (GI)” value [14] of the same compound?
**A.** The value was “Non-Toxic”.

**Q.** What about the inhibition [15] of the same compound?
**A.** The inhibition was “Active”.

**Q.** What about the inhibition [16] of the same compound?
**A.** Its inhibition is “Active”.
